Assay results from patent US20110082130A1 (LIGAND PHARMACEUTICALS, INC., priority 2006, published 2011).

The compounds below were run against T1, chimeric human H3 receptor (Homo sapiens, UniProt Q9Y5N1) (assay: Chimeric human H3 receptor screening GTP binding assay (inhibition of histamine-stimulated GTP-gamma35S binding, Example 8)). Conditions: 4 μM of the compound, 1 μM histamine, "†" in Ki of Table II, read-out: percent inhibition of the signal obtained with 1 μM histamine.
T1 construct: made in house; host or cells: Sf9 insect cells (baculovirus); P2 membrane preparation
T1 sequence (Q9Y5N1 with tags, fused parts or gaps): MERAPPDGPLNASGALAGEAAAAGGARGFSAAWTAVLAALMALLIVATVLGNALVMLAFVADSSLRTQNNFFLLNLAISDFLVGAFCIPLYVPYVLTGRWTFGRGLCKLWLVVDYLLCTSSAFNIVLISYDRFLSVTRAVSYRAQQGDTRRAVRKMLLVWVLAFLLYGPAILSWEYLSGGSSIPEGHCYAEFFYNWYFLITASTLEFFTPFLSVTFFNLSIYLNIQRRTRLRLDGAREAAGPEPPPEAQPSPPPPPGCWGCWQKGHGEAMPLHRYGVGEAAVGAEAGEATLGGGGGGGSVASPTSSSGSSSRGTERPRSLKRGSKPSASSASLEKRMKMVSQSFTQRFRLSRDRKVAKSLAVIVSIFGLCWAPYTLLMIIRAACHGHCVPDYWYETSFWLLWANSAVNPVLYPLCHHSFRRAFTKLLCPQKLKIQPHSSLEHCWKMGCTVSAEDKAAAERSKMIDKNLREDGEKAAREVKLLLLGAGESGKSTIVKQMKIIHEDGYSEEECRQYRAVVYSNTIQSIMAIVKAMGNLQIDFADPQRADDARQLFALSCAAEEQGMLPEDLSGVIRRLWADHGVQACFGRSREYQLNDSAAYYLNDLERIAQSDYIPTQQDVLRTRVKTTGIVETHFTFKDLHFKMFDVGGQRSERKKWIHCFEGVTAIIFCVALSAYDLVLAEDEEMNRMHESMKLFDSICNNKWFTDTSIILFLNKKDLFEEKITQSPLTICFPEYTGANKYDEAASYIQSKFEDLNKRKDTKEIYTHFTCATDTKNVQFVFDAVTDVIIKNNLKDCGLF
Type: biochemical
Outline: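 Values are percent inhibition of 1 μM histamine-stimulated GTP-gamma35S […] binding, with non-specific binding (10 μM GTP-gammaS) subtracted, by compounds tested at 4 μM. Membranes (35 μg) from Sf9 cells expressing chimeric human H3 with G-protein subunits were used in Tris pH 7.4 buffer with 10 μM GDP. Incubation lasted 60 min at room temperature, followed by filtration and scintillation counting.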

Inhibition at 4 µM, ≥ 90%:
O=C(CN1CCc2cc(-c3ccc(F)cc3)ccc2C1)N1CCN(C2CCCC2)CC1 [Compound 408, 2-[2-(4-cyclopentylpiperazin-1-yl)-2-oxoethyl]-6-(4-fluorophenyl)-1,2,3,4-tetrahydroisoquinoline]
O=C(CN1CCc2cc(-c3cccc(Cl)c3)ccc2C1)N1CCN(C2CCCCC2)CC1 [Compound 403, 6-(3-chlorophenyl)-2-[2-(4-cyclohexylpiperazin-1-yl)-2-oxoethyl]-1,2,3,4-tetrahydroisoquinoline]
COc1cccc(-c2ccc3c(c2)CCN(CC(=O)N2CCN(C4CCCCC4)CC2)C3)c1 [Compound 477, 2-[2-(4-cyclohexylpiperazin-1-yl)-2-oxoethyl]-6-(3-methoxyphenyl)-1,2,3,4-tetrahydroisoquinoline]
Cc1cc(C)cc(-c2ccc3c(c2)CCN(CC(=O)N2CCN(C(C)C)CC2)C3)c1 [Compound 458, 6-(3,5-dimethylphenyl)-2-[2-(4-isopropylpiperazin-1-yl)-2-oxoethyl]-1,2,3,4-tetrahydroisoquinoline]
O=C(CN1CCc2cc(-c3cccc4c3oc3ccccc34)ccc2C1)N1CCN(C2CCCCC2)CC1 [Compound 384, 2-[2-(4-cyclohexylpiperazin-1-yl)-2-oxoethyl]-6-dibenzo[b,d]furan-4-yl-1,2,3,4-tetrahydroisoquinoline]
COc1ccc(F)cc1-c1nc2c(s1)CN(CC(=O)N1CCN(C3CCC3)CC1)CC2 [Compound 343, 5-[2-(4-cyclobutylpiperazin-1-yl)-2-oxoethyl]-2-(5-fluoro-2-methoxyphenyl)-4,5,6,7-tetrahydro[1,3]thiazolo [5,4-c]pyridine]
CC(C)c1ccc(-c2ccc3c(c2)CCN(CC(=O)N2CCN(C4CCCCC4)CC2)C3)cc1 [Compound 445, 2-[2-(4-cyclohexylpiperazin-1-yl)-2-oxoethyl]-6-(4-isopropylphenyl)-1,2,3,4-tetrahydroisoquinoline]
Cc1ccc(-c2ccc3c(c2)CCN(CC(=O)N2CCN(C4CCCC4)CC2)C3)cc1 [Compound 436, 2-[2-(4-cyclopentylpiperazin-1-yl)-2-oxoethyl]-6-(4-methylphenyl)-1,2,3,4-tetrahydroisoquinoline]

Same assay, conditions: Table II "Ki", symbol †, 4 μM of the compound, 1 μM histamine, read-out: percent inhibition of the signal obtained with 1 μM histamine

Inhibition at 4 µM, ≥ 90%:
COc1cc(-c2ccc3c(c2)CCN(CC(=O)N2CCN(C4CCCCC4)CC2)C3)cc(OC)c1OC [Compound 518, 2-[2-(4-cyclohexylpiperazin-1-yl)-2-oxoethyl]-6-(3,4,5-trimethoxyphenyl)-1,2,3,4-tetrahydroisoquinoline]
O=C(CN1CCc2cc(-c3ccc(F)c(F)c3)ccc2C1)N1CCN(C2CCCC2)CC1 [Compound 590, 2-[2-(4-cyclopentylpiperazin-1-yl)-2-oxoethyl]-6-(3,4-difluorophenyl)-1,2,3,4-tetrahydroisoquinoline]
Cc1cc(F)ccc1-c1ccc2c(c1)CCN(CC(=O)N1CCN(C3CCC3)CC1)C2 [Compound 626, 2-[2-(4-cyclobutylpiperazin-1-yl)-2-oxoethyl]-6-(4-fluoro-2-methylphenyl)-1,2,3,4-tetrahydroisoquinoline]
COc1ccc(F)cc1-c1ccc2c(c1)CCN(CC(=O)N1CCN(C3CCCC3)CC1)C2 [Compound 571, 2-[2-(4-cyclopentylpiperazin-1-yl)-2-oxoethyl]-6-(5-fluoro-2-methoxyphenyl)-1,2,3,4-tetrahydroisoquinoline]
COc1ccccc1-c1ccc2c(c1)CCN(CC(=O)N1CCN(C3CCCCC3)CC1)C2 [Compound 553, 2-[2-(4-cyclohexylpiperazin-1-yl)-2-oxoethyl]-6-(2-methoxyphenyl)-1,2,3,4-tetrahydroisoquinoline]
COc1ccc(-c2ccc3c(c2)CCN(CC(=O)N2CCN(C4CCCC4)CC2)C3)c(OC)c1 [Compound 564, 2-[2-(4-cyclopentylpiperazin-1-yl)-2-oxoethyl]-6-(2,4-dimethoxyphenyl)-1,2,3,4-tetrahydroisoquinoline]
COc1ccc(OC)c(-c2ccc3c(c2)CCN(CC(=O)N2CCN(C4CCCC4)CC2)C3)c1 [Compound 560, 2-[2-(4-cyclopentylpiperazin-1-yl)-2-oxoethyl]-6-(2,5-dimethoxyphenyl)-1,2,3,4-tetrahydroisoquinoline]
O=C(CN1CCc2cc(-c3cccc(OC(F)(F)F)c3)ccc2C1)N1CCN(C2CCCCC2)CC1 [Compound 492, 2-[2-(4-cyclohexylpiperazin-1-yl)-2-oxoethyl]-6-[3-(trifluoromethoxy)phenyl]-1,2,3,4-tetrahydroisoquinoline]
COc1ccc(-c2ccc3c(c2)CCN(CC(=O)N2CCN(C(C)C)CC2)C3)cc1C [Compound 543, 2-[2-(4-isopropylpiperazin-1-yl)-2-oxoethyl]-6-(4-methoxy-3-methylphenyl)-1,2,3,4-tetrahydroisoquinoline]
CC(C)Oc1cccc(-c2ccc3c(c2)CCN(CC(=O)N2CCN(C(C)C)CC2)C3)c1 [Compound 515, 6-(3-isopropoxyphenyl)-2-[2-(4-isopropylpiperazin-1-yl)-2-oxoethyl]-1,2,3,4-tetrahydroisoquinoline]
